Patent US20170190671A1, “BIS(ARYL)CATECHOL DERIVATIVES AS HERBICIDES” (E I DU PONT DE NEMOURS AND COMPANY, priority 2014, published 2017)

Columns and labels:
Assay in all cases: Test C postemergence
Format in all cases: in vivo
[1] = test system: Italian ryegrass (Lolium multiflorum); settings: Lolium multiflorum, post-emergence, 336 h, Postemergence, scale 0 to 100, read-out: Plant response rating, Ryegrass, Italian
How it was run: (§1)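 Seeded loam-sand soil (preemergence) or young potted plants of 2-18 cm (postemergence) received test chemical formulated with surfactant in a non-phytotoxic solvent. Pots were kept in the greenhouse for 13-15 days before a visual 0-100 control rating relative to controls.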

[2] = test system: barnyardgrass (Echinochloa crus-galli); settings: Echinochloa crus-galli, post-emergence, Postemergence, scale 0 to 100, read-out: Plant response rating, Barnyardgrass
How it was run: as §1

corn (Zea mays) = settings: Zea mays, post-emergence, 336 h, Postemergence, scale 0 to 100
How it was run: as §1

[3] = test system: galium (catchweed bedstraw, Galium aparine); settings: Galium, post-emergence, 336 h, Postemergence, scale 0 to 100, read-out: Plant response rating, Galium
How it was run: as §1

[4] = test system: johnsongrass (Sorghum halepense); settings: Sorghum halepense, post-emergence, 336 h, Postemergence, scale 0 to 100, read-out: Plant response rating, Johnsongrass
How it was run: as §1

kochia (Kochia scoparia) = settings: Bassia scoparia, post-emergence, Postemergence, scale 0 to 100, read-out: Plant response rating, Kochia
How it was run: as §1

[5] = test system: large (Lg) crabgrass (Digitaria sanguinalis); settings: Digitaria sanguinalis, post-emergence, 336 h, Postemergence, scale 0 to 100, read-out: Plant response rating, Crabgrass, Large
How it was run: as §1

[6] = test system: morningglory (Ipomoea coccinea); settings: Ipomoea, post-emergence, 336 h, Postemergence, scale 0 to 100, read-out: Plant response rating, Morningglory
How it was run: as §1

[7] = test system: oilseed rape (Brassica napus); settings: Brassica napus, post-emergence, Postemergence, scale 0 to 100, read-out: Plant response rating, Oilseed Rape
How it was run: as §1

[8] = test system: pigweed (Amaranthus retroflexus); settings: Amaranthus retroflexus, post-emergence, 336 h, Postemergence, scale 0 to 100, read-out: Plant response rating, Pigweed
How it was run: as §1

[9] = test system: ragweed (common ragweed, Ambrosia elatior); settings: Ambrosia artemisiifolia, post-emergence, 336 h, Postemergence, scale 0 to 100, read-out: Plant response rating, Ragweed
How it was run: as §1

soybean (Glycine max) = settings: Glycine max, post-emergence, Postemergence, scale 0 to 100, read-out: Plant response rating, Soybean
How it was run: as §1

[10] = test system: waterhemp (common waterhemp, Amaranthus rudis); settings: Amaranthus tuberculatus, post-emergence, Postemergence, scale 0 to 100, read-out: Plant response rating, Waterhemp
How it was run: as §1

wild oat (Avena fatua) = settings: Avena fatua, post-emergence, Postemergence, scale 0 to 100, read-out: Plant response rating, Oat, Wild
How it was run: as §1

[11] = test system: winter wheat (Triticum aestivum); settings: Triticum aestivum, post-emergence, 336 h, Postemergence, scale 0 to 100, read-out: Plant response rating, Wheat
How it was run: as §1

Fc1cccc(Oc2ncc(C(F)(F)F)cn2)c1Oc1ncc(Cl)cn1 [Compound 42, 5-chloro-2-[2-fluoro-6-[[5-(trifluoromethyl)-2-pyrimidinyl]oxy]phenoxy]pyrimidine]
pest or weed control at 31 g/ha ([1]; 31 g ai/ha): 0%
pest or weed control at 62 g/ha ([1]; 62 g ai/ha): 10%
pest or weed control at 125 g/ha ([1]; 125 g ai/ha): 35%
pest or weed control at 16 g/ha ([2]; 16 g ai/ha): 5%
pest or weed control at 31 g/ha ([2]; 31 g ai/ha): 5%
pest or weed control at 62 g/ha ([2]; 62 g ai/ha): 10%
pest or weed control at 125 g/ha ([2]; 125 g ai/ha): 20%
Corn plant response rating (crop injury, 0 = no effect, 100 = complete kill) at 16 g/ha (corn (Zea mays); 16 g ai/ha): 5%
Corn plant response rating (crop injury, 0 = no effect, 100 = complete kill) at 31 g/ha (corn (Zea mays); 31 g ai/ha): 5%
Corn plant response rating (crop injury, 0 = no effect, 100 = complete kill) at 62 g/ha (corn (Zea mays); 62 g ai/ha): 10%
Corn plant response rating (crop injury, 0 = no effect, 100 = complete kill) at 125 g/ha (corn (Zea mays); 125 g ai/ha): 25%
pest or weed control at 16 g/ha ([3]; 16 g ai/ha): 75%
pest or weed control at 31 g/ha ([3]; 31 g ai/ha): 98%
pest or weed control at 62 g/ha ([3]; 62 g ai/ha): 100%
pest or weed control at 125 g/ha ([3]; 125 g ai/ha): 100%
pest or weed control at 16 g/ha ([4]; 16 g ai/ha): 10%
pest or weed control at 31 g/ha ([4]; 31 g ai/ha): 10%
pest or weed control at 62 g/ha ([4]; 62 g ai/ha): 10%
pest or weed control at 125 g/ha ([4]; 125 g ai/ha): 40%
pest or weed control at 16 g/ha (kochia (Kochia scoparia); 16 g ai/ha): 90%
pest or weed control at 31 g/ha (kochia (Kochia scoparia); 31 g ai/ha): 95%
pest or weed control at 62 g/ha (kochia (Kochia scoparia); 62 g ai/ha): 100%
pest or weed control at 125 g/ha (kochia (Kochia scoparia); 125 g ai/ha): 100%
pest or weed control at 16 g/ha ([5]; 16 g ai/ha): 10%
pest or weed control at 31 g/ha ([5]; 31 g ai/ha): 20%
pest or weed control at 62 g/ha ([5]; 62 g ai/ha): 15%
pest or weed control at 125 g/ha ([5]; 125 g ai/ha): 40%
pest or weed control at 31 g/ha ([6]; 31 g ai/ha): 70%
pest or weed control at 62 g/ha ([6]; 62 g ai/ha): 75%
pest or weed control at 125 g/ha ([6]; 125 g ai/ha): 85%
plant injury at 31 g/ha ([7]; 31 g ai/ha): 50%
plant injury at 62 g/ha ([7]; 62 g ai/ha): 70%
plant injury at 125 g/ha ([7]; 125 g ai/ha): 85%
pest or weed control at 31 g/ha ([8]; 31 g ai/ha): 90%
pest or weed control at 62 g/ha ([8]; 62 g ai/ha): 98%
pest or weed control at 125 g/ha ([8]; 125 g ai/ha): 98%
pest or weed control at 31 g/ha ([9]; 31 g ai/ha): 65%
pest or weed control at 62 g/ha ([9]; 62 g ai/ha): 70%
pest or weed control at 125 g/ha ([9]; 125 g ai/ha): 65%
plant injury at 31 g/ha (soybean (Glycine max); 31 g ai/ha): 55%
plant injury at 62 g/ha (soybean (Glycine max); 62 g ai/ha): 65%
plant injury at 125 g/ha (soybean (Glycine max); 125 g ai/ha): 85%
pest or weed control at 31 g/ha ([10]; 31 g ai/ha): 90%
pest or weed control at 62 g/ha ([10]; 62 g ai/ha): 95%
pest or weed control at 125 g/ha ([10]; 125 g ai/ha): 95%
pest or weed control at 31 g/ha (wild oat (Avena fatua); 31 g ai/ha): 10%
pest or weed control at 62 g/ha (wild oat (Avena fatua); 62 g ai/ha): 40%
pest or weed control at 125 g/ha (wild oat (Avena fatua); 125 g ai/ha): 60%
plant injury at 31 g/ha ([11]; 31 g ai/ha): 0%
plant injury at 62 g/ha ([11]; 62 g ai/ha): 0%
plant injury at 125 g/ha ([11]; 125 g ai/ha): 10%
